# Legend:
# [1] = biological target: T1, MAP4K1 (HPK1) (Homo sapiens, UniProt Q92918); test: Inhibition of MAP4K1 biochemical enzymatic activity (EZReader 2 electrophoretic mobility shift assay); conditions: HPK1 (Invitrogen), S6K2tide 1.5 μM, 120 min; ATP 26 μM or 1000 μM (not stated which)
# T1 construct: purchased Invitrogen
# In short: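 Mobility-shift assay: 0.1-15 nM enzyme, 1.5 μM fluorescent peptide, 20-1000 μM ATP (apparent Km or 1 mM) in HEPES pH 7.5, MgCl2, DTT, Brij 35; 60-180 min at 25° C, 1% DMSO. Ten-point 4-fold compound series in duplicate; EDTA-stopped, product/substrate peak ratio read.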
# [2] = system: Primary T Cell; test: T cell enhancement of cytokines: IL2 measurement (HTRF) in expanded CD3+ T cells stimulated with anti-CD3/anti-CD28; assay type: cell-based, human; conditions: Homo sapiens, T-cell, 24 h, plate-bound anti-CD3 and soluble anti-CD28, 24 h, read-out: IL-2 Primary T Cell EC50
# Protocol: T cells are isolated from whole blood of healthy donors by immunomagnetic negative selection following manufacture's protocol (StemCell Technologies, human T cell isolation kit). Purity of isolated cells is assessed by flow cytometry and yields 95-98% CD3^+ T cells. For expansion of T cells, 1×10^6 cells/well are plated in serum free cell expansion media (ThermoFisher) containing 30U of recombinant human IL2 (R&D) and stimulated with 25 ul of CD3/CD28 beads (Invitrogen) in 24 well plates for 3-4 days. T cells are then expanded in 175 cm flasks and maintained at a cell density of 1 to 2.5×10^6 cells/ml days by addition of ⅔ of fresh media every 2-3 days. After 10-14 days, cells are frozen in BamBanker freezing media (Thermo) and stored in liquid nitrogen.
# For IL2 measurement, expanded CD3+ T cells are dispensed at 100K cells/well (cultured in X-VIVO 10 Serum-free media) and are stimulated with plate-bound anti-CD3 and soluble anti-CD28 in the presence of vehicle or compound of the disclosure at various concentrations for 24 h. As outlined in the manufacturer's protocol (Cisbio), 16 μL of conditioned media is transferred to a white 384-well low volume plate. Following a 24 h incubation with the anti-IL2 antibodies, the homogenous time resolved fluorescence (HTRF) is measured.
# T1 sequence (Q92918 whole entry): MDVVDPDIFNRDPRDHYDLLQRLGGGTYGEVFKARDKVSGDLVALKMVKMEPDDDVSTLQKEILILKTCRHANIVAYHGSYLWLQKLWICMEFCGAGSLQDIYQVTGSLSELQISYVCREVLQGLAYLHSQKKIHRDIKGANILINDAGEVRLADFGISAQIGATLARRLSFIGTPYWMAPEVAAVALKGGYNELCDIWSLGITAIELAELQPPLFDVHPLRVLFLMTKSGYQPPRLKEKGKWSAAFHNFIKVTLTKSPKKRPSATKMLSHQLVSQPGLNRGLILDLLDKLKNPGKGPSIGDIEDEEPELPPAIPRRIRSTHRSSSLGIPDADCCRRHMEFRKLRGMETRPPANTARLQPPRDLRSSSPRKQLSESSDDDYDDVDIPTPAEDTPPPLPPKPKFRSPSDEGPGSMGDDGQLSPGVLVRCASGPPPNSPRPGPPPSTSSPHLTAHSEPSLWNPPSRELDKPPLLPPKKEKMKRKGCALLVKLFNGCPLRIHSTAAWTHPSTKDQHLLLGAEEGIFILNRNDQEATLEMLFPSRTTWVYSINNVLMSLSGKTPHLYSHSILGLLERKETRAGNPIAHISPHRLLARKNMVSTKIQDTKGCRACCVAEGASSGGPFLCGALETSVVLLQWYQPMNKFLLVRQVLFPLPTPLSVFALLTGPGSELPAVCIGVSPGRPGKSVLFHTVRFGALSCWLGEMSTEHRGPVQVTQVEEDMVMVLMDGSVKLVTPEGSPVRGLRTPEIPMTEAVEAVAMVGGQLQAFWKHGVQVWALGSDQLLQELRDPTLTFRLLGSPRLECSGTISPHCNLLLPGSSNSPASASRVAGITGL
Compound,IC50 [1] [nM],EC50 [2] [nM]
"C[C@@H]1c2nc(Nc3cc4c(C(C)(C)N)cnc(OC5CN(C(=O)[C@H]6C[C@H]6F)C5)c4cn3)ccc2C(=O)OC1(C)C [Compound 13, (R)-2-((5-(2-aminopropan-2-yl)-8-((1-((1R,2R)-2-fluorocyclopropane-1-carbonyl)azetidin-3-yl)oxy)-2,7-naphthyridin-3-yl)amino)-7,7,8-trimethyl-7,8-dihydro-5H-pyrano[4,3-b]pyridin-5-one]",0.17,23.2
C[C@@H]1c2nc(Nc3cc4c(C(C)(C)N)cnc(O[C@@H]5CN(C(=O)[C@@H]6C[C@@H]6F)[C@H]5C)c4cn3)ccc2C(=O)OC1(C)C [Compound 14],0.19,15.3
"COC1CN(C(=O)[C@H]2C[C@@H](Oc3ncc(C(C)(C)N)c4cc(Nc5ccc6c(n5)[C@@H](C)C(C)(C)OC6=O)ncc34)C2)C1 [Compound 15, (R)-2-((5-(2-aminopropan-2-yl)-8-((cis)-3-(3-methoxyazetidine-1-carbonyl)cyclobutoxy)-2,7-naphthyridin-3-yl)amino)-7,7,8-trimethyl-7,8-dihydro-5H-pyrano[4,3-b]pyridin-5-one]",0.13,42
CC(=O)N1CC(Oc2ccc(C(C)(C)N)c3cc(Nc4ccc5c(n4)[C@@H](C)[C@H](C)OC5=O)ncc23)C1 [Compound 19],0.2,41.1
"CC(=O)N1CC(Oc2ccc(C(C)(C)N)c3cc(Nc4ccc5c(n4)[C@@H](C)C(C)(C)OC5=O)ncc23)C1 [Compound 21, (R)-2-((8-((1-Acetylazetidin-3-yl)oxy)-5-(2-aminopropan-2-yl)isoquinolin-3-yl)amino)-7,7,8-trimethyl-7,8-dihydro-5H-pyrano[4,3-b]pyridin-5-one]",0.14,16.8
CC(=O)N1CC(Nc2ncc(C(C)(C)N)c3cc(Nc4ccc5c(n4)[C@@H](C)C(C)(C)OC5=O)ncc23)C1 [Compound 22],0.54,479
C[C@@H]1OC(=O)c2ccc(Nc3cc4c(C(C)(C)N)ccc(OC5CN(C(=O)C6CC6)C5)c4cn3)nc2[C@H]1C [Compound 29],0.12,11
C[C@@H]1c2nc(Nc3cc4c(C(C)(C)N)cnc(OCCN5CCCC5=O)c4cn3)ccc2C(=O)OC1(C)C [Compound 31],0.21,42.8
C[C@@H]1OC(=O)c2ccc(Nc3cc4c(C(C)(C)N)cnc(O[C@H]5C[C@@H](C(=O)N(C)C)C5)c4cn3)nc2[C@H]1C [Compound 33],0.15,9.2
C[C@@H]1OC(=O)c2ccc(Nc3cc4c(C(C)(C)N)cnc(OC5CN(C(=O)N(C)C)C5)c4cn3)nc2[C@H]1C [Compound 34],0.19,43.3
C[C@@H]1c2nc(Nc3cc4c(C(C)(C)N)cnc(OCCCC(=O)N(C)C)c4cn3)ccc2C(=O)OC1(C)C [Compound 39],0.14,14
CC[C@@](C)(N)c1cnc(OC2CN(C(=O)C3CC3)C2)c2cnc(Nc3ccc4c(n3)[C@@H](C)[C@H](C)OC4=O)cc12 [Compound 49],0.24,25.7
C[C@@H]1OC(=O)c2ccc(Nc3cc4c(C(C)(C)N)cnc(OC5CN(C(=O)C6COC6)C5)c4cn3)nc2[C@H]1C [Compound 54],0.21,29.3
COC[C@@](C)(N)c1ccc(OC2CN(C(C)=O)C2)c2cnc(Nc3ccc4c(n3)[C@@H](C)C(C)(C)OC4=O)cc12 [Compound 56],0.17,23.8
C[C@@H]1c2nc(Nc3cc4c(C(C)(C)N)cnc(OC5CN(C(=O)N(C)C)C5)c4cn3)ccc2C(=O)OC1(C)C [Compound 57],0.13,21.1
COC[C@@](C)(N)c1cnc(OC2CN(C(C)=O)C2)c2cnc(Nc3ccc4c(n3)[C@@H](C)C(C)(C)OC4=O)cc12 [Compound 62],0.29,107
CC(C)(N)c1cnc(OC2CN(C(=O)C3CC3)C2)c2cnc(Nc3ccc4c(n3)C3(CC3)C(C)(C)OC4=O)cc12 [Compound 63],0.19,23.2
C[C@@H]1c2nc(Nc3cc4c(C(C)(C)N)cnc(O[C@@H]5CN(C(=O)C6CC6)[C@H]5C)c4cn3)ccc2C(=O)OC1(C)C [Compound 65],0.2,17.5
CC[C@@](C)(N)c1cnc(OC2CN(C(=O)C3CC3)C2)c2cnc(Nc3ccc4c(n3)[C@@H](C)C(C)(C)OC4=O)cc12 [Compound 70],0.18,12.5

Compound,IC50 [1] [nM],EC50 [2] [nM]
C[C@@H]1c2nc(Nc3cc4c(C(C)(C)N)cnc(OC5CN(C(=O)N6CCC6)C5)c4cn3)ccc2C(=O)OC1(C)C [Compound 72],0.21,30.5
C[C@@H]1OC(=O)c2ccc(Nc3cc4c(C(C)(C)N)cnc(OC5CN(C(=O)[C@@H]6CCCO6)C5)c4cn3)nc2[C@H]1C [Compound 76],0.17,47.3
C[C@@H]1c2nc(Nc3cc4c(C(C)(C)N)cnc(OC5CN(C(=O)C6COC6)C5)c4cn3)ccc2C(=O)OC1(C)C [Compound 77],0.36,47.8
COC[C@@](C)(N)c1cnc(OC2CN(C(=O)C3CC3)C2)c2cnc(Nc3ccc4c(n3)[C@@H](C)[C@H](C)OC4=O)cc12 [Compound 80],0.17,62.9
C[C@@H]1OC(=O)c2ccc(Nc3cc4c(C(C)(C)N)cnc(OC5CN(C(=O)[C@@H]6C[C@@H]6F)[C@H]5C)c4cn3)nc2[C@H]1C (some centres unmarked) [Compound 85],0.1,17.8
COC1CN(C(=O)[C@H]2C[C@@H](Oc3ncc(C(C)(C)N)c4cc(Nc5ccc6c(n5)[C@@H](C)[C@H](C)OC6=O)ncc34)C2)C1 [Compound 92],0.17,34
C[C@@H]1c2nc(Nc3cc4c(C(C)(C)N)cnc(OC5CN(C(=O)N6CC(F)C6)C5)c4cn3)ccc2C(=O)OC1(C)C [Compound 95],0.22,19.8
C[C@@H]1c2nc(Nc3cc4c(C(C)(C)N)cnc(O[C@H]5C[C@@H](C(=O)N6CC(F)(F)C6)C5)c4cn3)ccc2C(=O)OC1(C)C [Compound 100],0.11,22.1
C[C@@H]1c2nc(Nc3cc4c(C(C)(C)N)cnc(OC5CN(C(=O)N6CC(F)(F)C6)C5)c4cn3)ccc2C(=O)OC1(C)C [Compound 101],0.13,17.8
C[C@@H]1OC(=O)c2ccc(Nc3cc4c(C(C)(C)N)cnc(OC5CN(C(=O)C6(C(F)(F)F)CC6)C5)c4cn3)nc2[C@H]1C [Compound 102],0.12,24
CC[C@@](C)(N)c1cnc(OC2CN(C(C)=O)C2)c2cnc(Nc3ccc4c(n3)C(C)(C)COC4=O)cc12 [Compound 111],0.43,9.6
CCC(=O)N1C[C@@H](Oc2ncc(C(C)(C)N)c3cc(Nc4ccc5c(n4)[C@@H](C)C(C)(C)OC5=O)ncc23)[C@@H]1C [Compound 118],0.17,17.7
COC[C@@](C)(N)c1cnc(O[C@@H]2CN(C(C)=O)[C@H]2C)c2cnc(Nc3ccc4c(n3)[C@@H](C)[C@H](C)OC4=O)cc12 [Compound 119],0.2,90
CCC(=O)N1CC(Oc2ncc([C@](C)(N)COC)c3cc(Nc4ccc5c(n4)[C@@H](C)[C@H](C)OC5=O)ncc23)C1 [Compound 120],0.25,29.4
COC[C@@](C)(N)c1cnc(OC2CN(C(=O)OC)C2)c2cnc(Nc3ccc4c(n3)[C@@H](C)[C@H](C)OC4=O)cc12 [Compound 121],0.2,41.5
COC[C@@](C)(N)c1cnc(OC2CN(C(C)=O)[C@H]2C)c2cnc(Nc3ccc4c(n3)[C@@H](C)C(C)(C)OC4=O)cc12 (some centres unmarked) [Compound 122],0.12,53.7
CCC(=O)N1CC(Oc2ncc([C@](C)(N)COC)c3cc(Nc4ccc5c(n4)[C@@H](C)C(C)(C)OC5=O)ncc23)C1 [Compound 123],0.1,60.8
COC[C@@](C)(N)c1cnc(OC2CN(C(=O)OC)C2)c2cnc(Nc3ccc4c(n3)[C@@H](C)C(C)(C)OC4=O)cc12 [Compound 125],0.17,130
